target: T1, Zcchc11 enzyme (Homo sapiens, UniProt Q5TAX3); experiment: TUTase assay (Zcchc11 assay, Lin28a-dependent polyuridylation of pre-let-7); assay type: biochemical; settings: LIN28A 10 nM, Zcchc11 0.2 nM, 5′-fluorescein pre-let-7 miRNA 2 nM, UTP 5 uM, room temperature, 30 minutes pre-incubation; read-out: Potency Lin28a-dep Z11 IC50
T1 construct: made in house; host or cells: HEK293 cells (Zcchc11); E. coli Rosetta II (LIN28A)
T1 sequence (Q5TAX3 212-1420): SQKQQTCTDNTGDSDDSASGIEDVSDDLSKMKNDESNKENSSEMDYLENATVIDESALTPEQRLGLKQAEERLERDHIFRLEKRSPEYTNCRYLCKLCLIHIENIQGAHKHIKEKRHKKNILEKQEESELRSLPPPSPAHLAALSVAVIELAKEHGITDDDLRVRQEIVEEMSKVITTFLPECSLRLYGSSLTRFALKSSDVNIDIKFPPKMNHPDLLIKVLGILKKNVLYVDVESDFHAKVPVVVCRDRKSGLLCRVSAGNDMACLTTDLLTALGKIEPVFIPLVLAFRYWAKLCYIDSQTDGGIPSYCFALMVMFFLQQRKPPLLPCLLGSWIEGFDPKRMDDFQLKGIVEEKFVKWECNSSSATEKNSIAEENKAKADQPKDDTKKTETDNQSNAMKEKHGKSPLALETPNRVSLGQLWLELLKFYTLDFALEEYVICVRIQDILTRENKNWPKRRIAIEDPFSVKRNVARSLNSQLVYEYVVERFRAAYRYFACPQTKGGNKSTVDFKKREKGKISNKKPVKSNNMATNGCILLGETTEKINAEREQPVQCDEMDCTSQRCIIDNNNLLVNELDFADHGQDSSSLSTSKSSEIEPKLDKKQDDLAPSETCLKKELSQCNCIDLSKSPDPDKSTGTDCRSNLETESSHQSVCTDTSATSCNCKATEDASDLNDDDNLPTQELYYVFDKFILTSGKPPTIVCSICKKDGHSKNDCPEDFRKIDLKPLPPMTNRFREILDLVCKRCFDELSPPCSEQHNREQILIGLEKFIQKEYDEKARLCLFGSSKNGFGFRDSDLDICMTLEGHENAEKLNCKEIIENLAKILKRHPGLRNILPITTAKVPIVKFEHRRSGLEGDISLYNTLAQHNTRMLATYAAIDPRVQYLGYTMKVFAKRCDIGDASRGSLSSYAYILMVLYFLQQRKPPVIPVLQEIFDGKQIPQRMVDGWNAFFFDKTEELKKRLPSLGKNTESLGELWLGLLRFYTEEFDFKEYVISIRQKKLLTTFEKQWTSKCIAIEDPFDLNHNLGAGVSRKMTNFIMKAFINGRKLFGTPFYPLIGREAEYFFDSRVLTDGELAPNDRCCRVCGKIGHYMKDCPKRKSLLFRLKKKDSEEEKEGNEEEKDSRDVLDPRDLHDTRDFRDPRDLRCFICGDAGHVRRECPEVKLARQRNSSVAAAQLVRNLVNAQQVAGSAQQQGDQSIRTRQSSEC
Outline: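 HEK293-expressed human Zcchc11 (residues 212-1420, 0.2 nM) with 10 nM LIN28A and 2 nM 5′-fluorescein pre-let-7, preincubated 30 min at room temperature, pH 7.3. Started with 5 uM UTP; poly(U) tails quenched by 3′-rhodamine A20 probe, read kinetically. IC50 from early-rate four-parameter fit; no-UTP wells define 0%.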

`CN(C)C1CN(c2ccc(-n3cc(C(=O)O)c(=O)c4cc(Cl)c(N5C(COc6ncccc6Cl)CCS5(=O)=O)cc43)cn2)C1` (stereo not shown) [Example 47, 6-chloro-7-(3-(((3-chloropyridin-2-yl)oxy)methyl)-1,1-dioxidoisothiazolidin-2-yl)-1-(6-(3-(dimethylamino)azetidin-1-yl)pyridin-3-yl)-4-oxo-1,4-dihydroquinoline-3-carboxylic acid] was tested. Which IC50 did it give?
The IC50 was ≤ 1000 nM.

With `CN(C)C1CN(c2ccc(-n3cc(C(=O)O)c(=O)c4cc(Cl)c(N5CCC6CC65COc5ncccc5Cl)cc43)cn2)C1` (stereo not shown) [Example 48, 6-chloro-7-(1-[[(3-chloropyridin-2-yl)oxy]methyl]-2-azabicyclo[3.1.0]hexan-2-yl)-1-[6-[3-(dimethylamino)azetidin-1-yl]pyridin-3-yl]-4-oxoquinoline-3-carboxylic acid] as the compound, how does the IC50 read?
Its IC50 is ≤ 1000 nM.

With `CN(C)C(=O)OC[C@H]1CCCN1c1cc2c(cc1Cl)c(=O)c(C(=O)O)cn2-c1ccc(N2CC(N(C)C)C2)nc1` [Example 49, 6-chloro-1-[6-[3-(dimethylamino)azetidin-1-yl]pyridin-3-yl]-7-[(2R)-2-[[(dimethylcarbamoyl)oxy]methyl]pyrrolidin-1-yl]-4-oxoquinoline-3-carboxylic acid] as the compound, how does the IC50 read?
The IC50 was ≤ 1000 nM.

With `NCCOc1cccnc1OC[C@H]1CCCN1c1cc2c(cc1Cl)c(=O)c(C(=O)O)cn2-c1ccc(Br)nc1` [Example 50, (R)-7-(2-(((3-(2-aminoethoxy)pyridin-2-yl)oxy)methyl)pyrrolidin-1-yl)-1-(6-bromopyridin-3-yl)-6-chloro-4-oxo-1,4-dihydroquinoline-3-carboxylic acid] as the compound, how does the IC50 read?
The IC50 was ≤ 1000 nM.

`CN(C)C1CN(c2ccc(-n3cc(C(=O)O)c(=O)c4cc(C#N)c(N5CCC[C@@]5(C)COc5ncccc5F)cc43)cn2)C1` [Example 51, (S)-6-cyano-1-(6-(3-(dimethylamino)azetidin-1-yl)pyridin-3-yl)-7-(2-(((3-fluoropyridin-2-yl)oxy)methyl)-2-methylpyrrolidin-1-yl)-4-oxo-1,4-dihydroquinoline-3-carboxylic acid] was tested. Which IC50 did it give?
Its IC50 is ≤ 1000 nM.

With `Cc1cc2c(=O)c(C(=O)O)cn(-c3ccc(N4CC(N(C)C)C4)nc3)c2cc1N1C(=O)CC1COc1ccccn1` (stereo not shown) [Example 52, 1-(6-(3-(dimethylamino)azetidin-1-yl)pyridin-3-yl)-6-methyl-4-oxo-7-(2-oxo-4-((pyridin-2-yloxy)methyl)azetidin-1-yl)-1,4-dihydroquinoline-3-carboxylic acid] as the compound, how does the IC50 read?
The IC50 was 10000 to 50000 nM.

With `CN(C)c1ccc(-n2cc(C(=O)O)c(=O)c3cc(Cl)c(N4CCC[C@@H]4COc4ncccc4OCCN)cc32)cn1` [Example 53, 7-[(2R)-2-([[3-(2-Aminoethoxy)pyridin-2-yl]oxy]methyl)pyrrolidin-1-yl]-6-chloro-1-[6-(dimethylamino)pyridin-3-yl]-4-oxoquinoline-3-carboxylic acid] as the compound, how does the IC50 read?
Its IC50 is ≤ 1000 nM.

How did the IC50 turn out when `CN(C)C1CN(c2ccc(-n3cc(C(=O)O)c(=O)c4cc(C#N)c(N5C(=O)CC[C@@H]5COc5ncccc5Cl)cc43)cn2)C1` [Example 54, (R)-7-(2-(((3-chloropyridin-2-yl)oxy)methyl)-5-oxopyrrolidin-1-yl)-6-cyano-1-(6-(3-(dimethylamino)azetidin-1-yl)pyridin-3-yl)-4-oxo-1,4-dihydroquinoline-3-carboxylic acid] was run?
Its IC50 is 10000 to 50000 nM.

How did the IC50 turn out when `O=C(O)c1cn2c3cc(c(Cl)cc3c1=O)N1CCC[C@@H]1COc1nc(ccc1Cl)OCCCNc1ccc-2cn1` [Example 55, (R)-26,63-dichloro-24-oxo-21,24-dihydro-5,7-dioxa-11-aza-2(1,7)-quinolina-1(5,2),6(2,6)-dipyridina-3(1,2)-pyrrolidinacycloundecaphane-23-carboxylic acid] was run?
Its IC50 is 10000 to 50000 nM.

`CN(C)C1CN(c2ccc(-n3cc(C(=O)O)c(=O)c4cc(Cl)c(N5CCC[C@]5(C)COc5ncccc5Cl)nc43)cn2)C1` [Example 56, 6-chloro-7-[(2R)-2-[[(3-chloropyridin-2-yl)oxy]methyl]-2-methylpyrrolidin-1-yl]-1-[6-[3-(dimethylamino)azetidin-1-yl]pyridin-3-yl]-4-oxo-1,8-naphthyridine-3-carboxylic acid] was tested. Which IC50 did it give?
The IC50 was ≤ 1000 nM.

With `CN(C)C1CN(c2ccc(-n3cc(C(=O)O)c(=O)c4cc(Cl)c(N5CC6(CCC6)CC5COc5ncccc5Cl)cc43)cn2)C1` (stereo not shown) [Example 57, 6-Chloro-7-(7-(((3-chloropyridin-2-yl)oxy)methyl)-6-azaspiro[3.4]octan-6-yl)-1-(6-(3-(dimethylamino)azetidin-1-yl)pyridin-3-yl)-4-oxo-1,4-dihydroquinoline-3-carboxylic acid] as the compound, how does the IC50 read?
The IC50 was ≤ 1000 nM.

How did the IC50 turn out when `CN(C)C1CN(c2ccc(-n3cc(C(=O)O)c(=O)c4cc(Cl)c(N5CC(C)(C)C[C@@H]5COc5ncccc5Cl)cc43)cn2)C1` [Example 58, 6-chloro-7-[(2R)-2-[[(3-chloropyridin-2-yl)oxy]methyl]-4,4-dimethylpyrrolidin-1-yl]-1-[6-[3-(dimethylamino)azetidin-1-yl]pyridin-3-yl]-4-oxoquinoline-3-carboxylic acid] was run?
Its IC50 is ≤ 1000 nM.

With `CN(C)C1CN(c2ccc(-n3cc(C(=O)O)c(=O)c4cc(Cl)c(N5CCC(C)(C)C5COc5ncccc5Cl)cc43)cn2)C1` (stereo not shown) [Example 59, 6-chloro-7-(2-{[(3-chloropyridin-2-yl)oxy]methyl}-3,3-dimethylpyrrolidin-1-yl)-1-{6-[3-(dimethylamino)azetidin-1-yl]pyridin-3-yl}-4-oxoquinoline-3-carboxylic acid] as the compound, how does the IC50 read?
The IC50 was ≤ 1000 nM.

Which IC50 does the source give for `CN(C)C1CN(c2ccc(-n3cc(C(=O)O)c(=O)c4cc(Cl)c(N5CC(F)(F)C[C@@H]5COc5ncccc5Cl)nc43)cn2)C1` [Example 60, 6-chloro-7-[(2R)-2-[[(3-chloropyridin-2-yl)oxy]methyl]-4,4-difluoropyrrolidin-1-yl]-1-[6-[3-(dimethylamino)azetidin-1-yl]pyridin-3-yl]-4-oxo-1,8-naphthyridine-3-carboxylic acid] here?
The IC50 was ≤ 1000 nM.

`CN(C)C1CN(c2ccc(-n3cc(C(=O)O)c(=O)c4cc(F)c(N5C[C@H](c6cccnc6)C[C@@H]5COc5ncccc5Cl)cc43)cn2)C1` [Example 61, 7-[(2R)-2-[[(3-Chloropyridin-2-yl)oxy]methyl]-4-(pyridin-3-yl)pyrrolidin-1-yl]-1-[6-[3-(dimethylamino)azetidin-1-yl]pyridin-3-yl]-6-fluoro-4-oxoquinoline-3-carboxylic acid] was tested. Which IC50 did it give?
The IC50 was ≤ 1000 nM.

Which IC50 does the source give for `CN(C)C1CN(c2ccc(-n3cc(C(=O)O)c(=O)c4cc(F)c(N5C[C@@H](c6cccnc6)C[C@@H]5COc5ncccc5Cl)cc43)cn2)C1` [Example 62, 7-[(2R,4R)-2-[[(3-chloropyridin-2-yl)oxy]methyl]-4-(pyridin-3-yl)pyrrolidin-1-yl]-1-[6-[3-(dimethylamino)azetidin-1-yl]pyridin-3-yl]-6-fluoro-4-oxoquinoline-3-carboxylic acid] here?
The IC50 was ≤ 1000 nM.

How did the IC50 turn out when `CN(C)C1CN(c2ccc(-n3cc(C(=O)O)c(=O)c4cc(Cl)c(N5CC(C6CCC6)C[C@@H]5COc5ncccc5Cl)cc43)cn2)C1` (stereo partly drawn) [Example 63, 6-chloro-7-((2R)-2-(((3-chloropyridin-2-yl)oxy)methyl)-4-cyclobutylpyrrolidin-1-yl)-1-(6-(3-(dimethylamino)azetidin-1-yl)pyridin-3-yl)-4-oxo-1,4-dihydroquinoline-3-carboxylic acid] was run?
Its IC50 is ≤ 1000 nM.

For `COc1ccc(Cl)c(OCC2C3CC(C3)N2c2cc3c(cc2Cl)c(=O)c(C(=O)O)cn3-c2ccc(N3CC(N(C)C)C3)nc2)n1` (stereo not shown) [Example 64, 6-chloro-7-(3-(((3-chloro-6-methoxypyridin-2-yl)oxy)methyl)-2-azabicyclo[2.1.1]hexan-2-yl)-1-(6-(3-(dimethylamino)azetidin-1-yl)pyridin-3-yl)-4-oxo-1,4-dihydroquinoline-3-carboxylic acid], which IC50 is on record?
The IC50 was ≤ 1000 nM.

For `CC1CCN(c2cc3c(cc2Cl)c(=O)c(C(=O)O)cn3-c2ccnc(N)c2)[C@H]1COc1nc(N(C)C)ccc1Cl` (stereo partly drawn) [Example 65, 1-(2-aminopyridin-4-yl)-6-chloro-7-[(2R)-2-({[3-chloro-6-(dimethylamino)pyridin-2-yl]oxy}methyl)-3-methylpyrrolidin-1-yl]-4-oxoquinoline-3-carboxylic acid], which IC50 is on record?
The IC50 was ≤ 1000 nM.

— patent US12662491B2 (Redona Therapeutics, Inc., priority 2020, dated 2026)
